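In this assay, cells in 96-well plates receive the compound at five concentrations for 48 hours. Endpoints are linearly interpolated between the surrounding concentrations. GI50: concentration for 50% inhibition of growth. TGI: concentration producing complete growth inhibition.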
Columns and labels:
Assay in all cases: DTP human tumour cell line panel, 48 h
MCF7 breast = tested on: MCF7 breast
CCRF-CEM leukemia = tested on: CCRF-CEM leukemia
DU-145 prostate = tested on: DU-145 prostate
BT-549 breast = tested on: BT-549 breast
786-0 renal = tested on: 786-0 renal
HL-60(TB) leukemia = tested on: HL-60(TB) leukemia
UACC-257 melanoma = tested on: UACC-257 melanoma
OVCAR-8 ovarian = tested on: OVCAR-8 ovarian
U251 CNS = tested on: U251 CNS
TK-10 renal = tested on: TK-10 renal
HCT-15 colon = tested on: HCT-15 colon
RPMI-8226 leukemia = tested on: RPMI-8226 leukemia
SNB-19 CNS = tested on: SNB-19 CNS
SR leukemia = tested on: SR leukemia
SF-268 CNS = tested on: SF-268 CNS
HCT-116 colon = tested on: HCT-116 colon
A549 NSCLC = tested on: A549 NSCLC
OVCAR-3 ovarian = tested on: OVCAR-3 ovarian
UO-31 renal = tested on: UO-31 renal
NCI-H23 lung = tested on: NCI-H23 lung
COLO 205 colon = tested on: COLO 205 colon
HCC-2998 colon = tested on: HCC-2998 colon
HOP-62 NSCLC = tested on: HOP-62 NSCLC
MDA-MB-435 = tested on: MDA-MB-435
MALME-3M melanoma = tested on: MALME-3M melanoma
KM12 colon = tested on: KM12 colon
SF-539 CNS = tested on: SF-539 CNS
A498 renal = tested on: A498 renal
OVCAR-5 ovarian = tested on: OVCAR-5 ovarian
NCI-H522 lung = tested on: NCI-H522 lung
OVCAR-4 ovarian = tested on: OVCAR-4 ovarian
PC-3 prostate = tested on: PC-3 prostate
NCI-H460 lung = tested on: NCI-H460 lung
HT29 colon = tested on: HT29 colon
SK-MEL-28 melanoma = tested on: SK-MEL-28 melanoma
EKVX NSCLC = tested on: EKVX NSCLC
HOP-92 NSCLC = tested on: HOP-92 NSCLC
SNB-75 CNS = tested on: SNB-75 CNS
MDA-MB-231 breast = tested on: MDA-MB-231 breast
MOLT-4 leukemia = tested on: MOLT-4 leukemia
SK-MEL-5 melanoma = tested on: SK-MEL-5 melanoma
NCI-H226 lung = tested on: NCI-H226 lung
HS 578T breast = tested on: HS 578T breast
SK-MEL-2 melanoma = tested on: SK-MEL-2 melanoma
SW-620 colon = tested on: SW-620 colon
RXF 393 renal = tested on: RXF 393 renal
ACHN renal = tested on: ACHN renal
SK-OV-3 ovarian = tested on: SK-OV-3 ovarian
CAKI-1 renal = tested on: CAKI-1 renal
UACC-62 melanoma = tested on: UACC-62 melanoma
IGROV1 ovarian = tested on: IGROV1 ovarian
SF-295 CNS = tested on: SF-295 CNS
LOX IMVI melanoma = tested on: LOX IMVI melanoma
SN12C renal = tested on: SN12C renal
M14 melanoma = tested on: M14 melanoma
K-562 leukemia = tested on: K-562 leukemia

O=C(CCCCN1CCOCC1)Nc1ccc(Cn2nnc3c2C(=O)c2nnn(Cc4ccc(NC(=O)CCCCN5CCOCC5)cc4)c2C3=O)cc1
GI50 (MCF7 breast): 84.9 nM | TGI (MCF7 breast): 195 nM | GI50 (CCRF-CEM leukemia): 271 nM | TGI (CCRF-CEM leukemia): 2700 nM | GI50 (DU-145 prostate): 459 nM | TGI (DU-145 prostate): 1050 nM | GI50 (BT-549 breast): 722 nM | TGI (BT-549 breast): 1410 nM | GI50 (786-0 renal): 1070 nM | TGI (786-0 renal): 3380 nM | GI50 (HL-60(TB) leukemia): 157 nM | TGI (HL-60(TB) leukemia): 687 nM | GI50 (UACC-257 melanoma): 141 nM | TGI (UACC-257 melanoma): 399 nM | GI50 (OVCAR-8 ovarian): 257 nM | TGI (OVCAR-8 ovarian): 1140 nM | GI50 (U251 CNS): 329 nM | TGI (U251 CNS): 879 nM | GI50 (TK-10 renal): 2020 nM | TGI (TK-10 renal): 39600 nM | GI50 (HCT-15 colon): 629 nM | TGI (HCT-15 colon): 1550 nM | GI50 (RPMI-8226 leukemia): 596 nM | TGI (RPMI-8226 leukemia): 2030 nM | GI50 (SNB-19 CNS): 187 nM | TGI (SNB-19 CNS): 566 nM | GI50 (SR leukemia): 406 nM | TGI (SR leukemia): 2650 nM | GI50 (SF-268 CNS): 400 nM | TGI (SF-268 CNS): 1600 nM | GI50 (HCT-116 colon): 160 nM | TGI (HCT-116 colon): 584 nM | GI50 (A549 NSCLC): 397 nM | TGI (A549 NSCLC): 1110 nM | GI50 (OVCAR-3 ovarian): 167 nM | TGI (OVCAR-3 ovarian): 559 nM | GI50 (UO-31 renal): 1240 nM | TGI (UO-31 renal): 17500 nM | GI50 (NCI-H23 lung): 154 nM | TGI (NCI-H23 lung): 522 nM | GI50 (COLO 205 colon): 95.9 nM | TGI (COLO 205 colon): 186 nM | GI50 (HCC-2998 colon): 181 nM | TGI (HCC-2998 colon): 594 nM | GI50 (HOP-62 NSCLC): 745 nM | TGI (HOP-62 NSCLC): 1490 nM | GI50 (MDA-MB-435): 94.8 nM | TGI (MDA-MB-435): 170 nM | GI50 (MALME-3M melanoma): 72 nM | TGI (MALME-3M melanoma): 163 nM | GI50 (KM12 colon): 574 nM | TGI (KM12 colon): 1720 nM | GI50 (SF-539 CNS): 132 nM | TGI (SF-539 CNS): 355 nM | GI50 (A498 renal): 906 nM | TGI (A498 renal): 1820 nM | GI50 (OVCAR-5 ovarian): 107 nM | TGI (OVCAR-5 ovarian): 244 nM | GI50 (NCI-H522 lung): 113 nM | TGI (NCI-H522 lung): 362 nM | GI50 (OVCAR-4 ovarian): 177 nM | TGI (OVCAR-4 ovarian): 769 nM | GI50 (PC-3 prostate): 404 nM | TGI (PC-3 prostate): 2570 nM | GI50 (NCI-H460 lung): 112 nM | TGI (NCI-H460 lung): 530 nM | GI50 (HT29 colon): 178 nM | TGI (HT29 colon): 837 nM | GI50 (SK-MEL-28 melanoma): 260 nM | TGI (SK-MEL-28 melanoma): 642 nM | GI50 (EKVX NSCLC): 776 nM | TGI (EKVX NSCLC): 1520 nM | GI50 (HOP-92 NSCLC): 808 nM | TGI (HOP-92 NSCLC): 1760 nM | GI50 (SNB-75 CNS): 234 nM | TGI (SNB-75 CNS): 806 nM | GI50 (MDA-MB-231 breast): 199 nM | TGI (MDA-MB-231 breast): 50000 nM | GI50 (MOLT-4 leukemia): 183 nM | TGI (MOLT-4 leukemia): 788 nM | GI50 (SK-MEL-5 melanoma): 71.7 nM | TGI (SK-MEL-5 melanoma): 141 nM | GI50 (NCI-H226 lung): 723 nM | TGI (NCI-H226 lung): 1840 nM | GI50 (HS 578T breast): 1090 nM | TGI (HS 578T breast): 13800 nM | GI50 (SK-MEL-2 melanoma): 351 nM | TGI (SK-MEL-2 melanoma): 1220 nM | GI50 (SW-620 colon): 201 nM | TGI (SW-620 colon): 800 nM | GI50 (RXF 393 renal): 717 nM | TGI (RXF 393 renal): 1810 nM | GI50 (ACHN renal): 758 nM | TGI (ACHN renal): 1810 nM | GI50 (SK-OV-3 ovarian): 930 nM | TGI (SK-OV-3 ovarian): 1830 nM | GI50 (CAKI-1 renal): 1430 nM | TGI (CAKI-1 renal): 28200 nM | GI50 (UACC-62 melanoma): 116 nM | TGI (UACC-62 melanoma): 341 nM | GI50 (IGROV1 ovarian): 669 nM | TGI (IGROV1 ovarian): 1460 nM | GI50 (SF-295 CNS): 381 nM | TGI (SF-295 CNS): 1050 nM | GI50 (LOX IMVI melanoma): 115 nM | TGI (LOX IMVI melanoma): 305 nM | GI50 (SN12C renal): 94.6 nM | TGI (SN12C renal): 203 nM | GI50 (M14 melanoma): 264 nM | TGI (M14 melanoma): 903 nM

Cc1nc2cc(Nc3nc(N4CCCCC4)nc(N4CCOCC4)n3)ccc2n1Cc1ccccc1
GI50 (MCF7 breast): 3280 nM | TGI (MCF7 breast): > 100000 nM | GI50 (DU-145 prostate): 3480 nM | TGI (DU-145 prostate): > 100000 nM | GI50 (BT-549 breast): 2510 nM | TGI (BT-549 breast): 7100 nM | GI50 (786-0 renal): 1780 nM | TGI (786-0 renal): 3230 nM | GI50 (HL-60(TB) leukemia): 2160 nM | TGI (HL-60(TB) leukemia): 5490 nM | GI50 (K-562 leukemia): 6710 nM | TGI (K-562 leukemia): > 100000 nM | GI50 (UACC-257 melanoma): 3150 nM | TGI (UACC-257 melanoma): > 100000 nM | GI50 (HCT-15 colon): 2840 nM | TGI (HCT-15 colon): > 100000 nM | GI50 (SR leukemia): 3570 nM | TGI (SR leukemia): > 100000 nM | GI50 (HCC-2998 colon): 3980 nM | TGI (HCC-2998 colon): > 100000 nM | GI50 (MDA-MB-435): 3410 nM | TGI (MDA-MB-435): > 100000 nM | GI50 (SF-539 CNS): > 100000 nM | TGI (SF-539 CNS): > 100000 nM | GI50 (MOLT-4 leukemia): 3600 nM | TGI (MOLT-4 leukemia): > 100000 nM | GI50 (NCI-H226 lung): 4060 nM | TGI (NCI-H226 lung): > 100000 nM | GI50 (HS 578T breast): 2710 nM | TGI (HS 578T breast): > 100000 nM | GI50 (SW-620 colon): 3190 nM | TGI (SW-620 colon): > 100000 nM | GI50 (IGROV1 ovarian): 3760 nM | TGI (IGROV1 ovarian): > 100000 nM | GI50 (M14 melanoma): 3920 nM | TGI (M14 melanoma): > 100000 nM

Reference: PubChem BioAssay (NCI)
